Measurements: article PMC3254698 (Bioorganic & medicinal chemistry letters, 2008)

Biological target: presenilin-1 (Homo sapiens, UniProt P49768)
Assay type: biochemical

IC50: 0.6 nM
Compound: CC(C)C[C@H](NC(=O)[C@H](Cc1ccccc1)C[C@@H](O)[C@H](Cc1ccc(C(=O)c2ccccc2)cc1)NC(=O)OC(C)(C)C)C(=O)N[C@@H](Cc1ccccc1)C(=O)NCCCCCNC(=O)CCCC[C@@H]1SC[C@@H]2NC(=O)N[C@@H]21 [compound 3]
